Source: patent US20260048052A1, “METHODS OF TREATING TENOSYNOVIAL GIANT CELL TUMORS” (Deciphera Pharmaceuticals, LLC, priority 2023, published 2026)
“And” between values parts separate entries of the source, which are not always exact repeats. Equal entries are not always repeated.

Assays:
[1] = system: patients with TGCT not amenable to surgery; test: Phase 3, randomized, placebo-controlled, double-blind study of vimseltinib in patients with TGCT: efficacy; type: in vivo, human
Procedure: (§1) This study is a two-part, randomized, double-blind, placebo-controlled study to assess the efficacy and safety of vimseltinib in patients with TGCT not amenable to surgery with no prior anti-CSF1/CSF1R therapy (prior therapy with imatinib or nilotinib allowed). In Part 1, patients (n=123) were randomized two-to-one to receive either 30 mg twice weekly of vimseltinib (n=83) or placebo (n=40) for 24 weeks. Vimseltinib or matching placebo was administered orally each week on day 1 and day 5 (±1 day) at approximately the same time of day on an empty stomach, with ≥24 hours between doses. An MRI of the affected joint was performed at screening, cycle 4 day 1 (week 13; ±7 days), and at the end of Part 1. Part 2 is an ongoing open-label study, in which patients from both the vimseltinib and placebo arms receive treatment with vimseltinib.
(§2) The primary endpoint of the study is the objective response rate (ORR) at Week 25 as measured by Response Evaluation Criteria in Solid Tumors (RECIST) version 1.1 by blinded independent radiologic review (IRR). Key secondary endpoints included the objective response rate at Week 25 by IRR per tumor volume score (TVS), active range of motion (ROM) at Week 25, PROMIS physical function (PROMIS-PF) score, worst stiffness numeric rating scale (NRS) score at Week 25, EQ-visual analogue scale (EQ-VAS) score at Week 25, and greater than or equal to 30% reduction in Brief Pain Inventory (BPI) in worst pain and less than 30% increase in narcotic use (BPI-30) at Week 25. Other secondary endpoints included duration of response (DOR) and safety.
Eligibility Criteria: Eligible patients were aged ≥18 years with a histologically confirmed diagnosis of TGCT for which surgical resection would potentially cause worsening functional limitation or severe morbidity. Patients had at least 1 measurable lesion ≥2 cm using Response Evaluation Criteria in Solid Tumors version 1.1 (RECIST v1.1), as assessed from magnetic resonance imaging (MRI) by a central radiologist.
Patients were excluded for receiving previous systemic therapy targeting CSF1 or CSF1R including vimseltinib; previous therapy with imatinib and/or nilotinib was allowed. Patients who received any therapy for TGCT (including investigational therapy) during screening, had major surgery 14 days prior to the first dose of study drug, or participated in a non-TGCT investigational drug study within 30 days of screening were also excluded.
Tumor volume score (TVS) is a semiquantitative magnetic resonance imaging scoring system that describes tumor mass. It is based on 10% increments of the estimated volume of the maximally distended involved synovial cavity or tendon sheath. Scores ranged from 0 to 10, and a tumor that was equal in volume to that of a maximally distended synovial cavity or tendon sheath was scored a 10; a score of 0 indicated no evidence of a tumor.
Complete response denoted disappearance of all tumor(s). Partial response was at least a 50% reduction from baseline in TVS. Progressive disease was at least a 30% increase in TVS from baseline. Stable disease was neither a sufficient decrease to qualify for partial response nor sufficient increase to qualify for progressive disease, taking the nadir as a reference. Response was considered not evaluable if the TVS could not be assessed for reasons such as inadequate or missing imaging.
Active range of motion (ROM; in degrees) was assessed using a goniometer and was normalized using a reference standard provided by the American Medical Association to compute the relative active ROM. In joints where more than one motion was measured, the motion with the smallest relative ROM value (worst) was used for evaluating subsequent changes in relative active ROM.
Response for PROMIS-PF, worst stiffness NRS, and EQ-VAS was a change from baseline ≥3, ≤−2, and ≥7, respectively. BPI worst pain response was defined as a ≥30% reduction in worst pain without a ≥30% increase in narcotic analgesic use. […]

[2] = system: patients with TGCT not amenable to surgery; test: Phase 3 study of vimseltinib in patients with TGCT: safety (TEAEs, Part 1); type: in vivo, human
Procedure: as §1, §2
Vimseltinib was well-tolerated and the safety profile in the study was consistent with previously disclosed data. […] Patients with treatment-emergent adverse events (TEAEs) leading to treatment discontinuation was 5% in the vimseltinib arm. The table below lists TEAEs greater than 15% in either arm during Part 1 of the study.

[3] = 30 mg twice weekly, ITT N=83, Week 25
[4] = 30 mg twice weekly, ITT, Week 25
[5] = 30 mg twice weekly, n=83, Part 1

Cc1nc(-c2cnc(NC(C)C)n(C)c2=O)ccc1Oc1ccnc(-c2cnn(C)c2)c1 [Vimseltinib, 2-(isopropylamino)-3-methyl-5-(6-methyl-5-((2-(1-methyl-IH-pyrazol-4-yl)pyridin-4-yl)oxy)pyridin-2-yl)pyrimidin-4(3H)-one]
clinical benefit (CR+PR+SD), best percentage change in target lesions by IRR ([1]; 30 mg twice weekly, FIG. 7A): Nearly all patients receiving vimseltinib experienced clinical benefit
BPI-30 Response in Worst Pain [1, 3]: 40 (48) n (%)
CFB in EQ-VAS at Week 25, LS Mean [1, 3]: 13.5
CFB in Worst Stiffness NRS at Week 25, LS Mean [1, 3]: −2.1
CR by IRR per TVS [1, 3]: 4 (5%) n (%)
Complete Response (CR) by IRR per RECIST 1.1 [1, 3]: 4 (5%) n (%)
ORR at Week 25 by IRR per RECIST 1.1 [1, 3]: 33 (40%) n (%)
ORR at Week 25 by IRR per RECIST v1.1 [1, 3]: 40%
PR by IRR per TVS [1, 3]: 52 (63%) n (%)
Partial Response (PR) by IRR per RECIST 1.1 [1, 3]: 29 (35%) n (%)
Stable disease (SD) by IRR per RECIST 1.1 [1, 3]: 42 (51%) n (%)
CFB in EQ-VAS at Week 25, Difference in LS Mean vs placebo [1, 4]: 7.4
CFB in Worst Stiffness NRS at Week 25, Difference in LS Mean vs placebo [1, 4]: −1.8
Difference in BPI-30 Response in Worst Pain vs placebo (95% CI) [1, 4]: 26% and 26 (4, 42) %
Difference in ORR (vimseltinib vs placebo) by IRR per TVS [1, 4]: 67%
Difference in ORR (vimseltinib vs. placebo) by IRR per RECIST 1.1 [1, 4]: 40%
response rate in active ROM at Week 25 ([1]; 30 mg twice weekly, N=79): 48%
response rate in PROMIS-PF at Week 25 ([1]; 30 mg twice weekly, N=79, response = change from baseline ≥3): 43%
response rate in EQ-VAS at Week 25 ([1]; 30 mg twice weekly, N=79, response = change from baseline ≥7): 37%
difference in response rate in EQ-VAS vs placebo ([1]; 30 mg twice weekly, Week 25): 12%
difference in response rate in PROMIS-PF vs placebo ([1]; 30 mg twice weekly, Week 25): 18%
difference in response rate in Worst Stiffness NRS vs placebo ([1]; 30 mg twice weekly, Week 25): 24%
difference in response rate in active ROM vs placebo ([1]; 30 mg twice weekly, Week 25): 28%
median duration of response by IRR per RECIST v1.1 ([1]; 30 mg twice weekly, responders): not reached
median duration of response by IRR per TVS ([1]; 30 mg twice weekly, responders): not reached
response rate in Worst Stiffness NRS at Week 25 ([1]; 30 mg twice weekly, response = change from baseline ≤−2): 39%
BPI-30 response rate in Worst Pain at Week 25 ([1]; 30 mg twice weekly, ≥30% reduction in BPI worst pain NRS and <30% increase in narcotic use): 48%
functional and symptomatic improvement across active ROM, PROMIS-PF, worst stiffness NRS, BPI worst pain ([1]; Week 25, versus placebo, FIG. 8): More patients experienced improvement in multiple measures
tumor responses, updated results ([1]; after 6 months): sustained tumor responses
cholestatic hepatotoxicity ([2]; 30 mg twice weekly): no evidence of cholestatic hepatotoxicity
related SAE ([2]; 30 mg twice weekly): one related SAE of subcutaneous abscess
severe adverse events (SAE) per patient ([2]; 30 mg twice weekly): no severe adverse event (SAE) occurred in more than one patient
tolerability ([2]; 30 mg twice weekly): well-tolerated
TEAE AST increased, All Grades [2, 5]: 19 (23%) n (%)
TEAE AST increased, Grade 3-4, number of patients [2, 5]: 0 n
TEAE Arthralgia, All Grades [2, 5]: 16 (19%) n (%)
TEAE Arthralgia, Grade 3-4, number of patients [2, 5]: 0 n
TEAE Asthenia, All Grades [2, 5]: 22 (27%) n (%)
TEAE Asthenia, Grade 3-4, number of patients [2, 5]: 1 n
TEAE Asthenia, Grade 3-4, percent of patients [2, 5]: (1%)
TEAE CPK increased, All Grades [2, 5]: 20 (24%) n (%)
TEAE CPK increased, Grade 3-4, number of patients [2, 5]: 8 n
TEAE CPK increased, Grade 3-4, percent of patients [2, 5]: 10%
TEAE Diarrhea, All Grades [2, 5]: 10 (12%) n (%)
TEAE Diarrhea, Grade 3-4, number of patients [2, 5]: 0 n
TEAE Edema peripheral, All Grades [2, 5]: 15 (18%) n (%)
TEAE Edema peripheral, Grade 3-4, number of patients [2, 5]: 0 n
TEAE Face edema, All Grades [2, 5]: 26 (31%) n (%)
TEAE Face edema, Grade 3-4, number of patients [2, 5]: 1 n
TEAE Face edema, Grade 3-4, percent of patients [2, 5]: (1%)
TEAE Fatigue, All Grades [2, 5]: 27 (33%) n (%)
TEAE Fatigue, Grade 3-4, number of patients [2, 5]: 0 n
TEAE Headache, All Grades [2, 5]: 23 (28%) n (%)
TEAE Headache, Grade 3-4, number of patients [2, 5]: 1 n
TEAE Headache, Grade 3-4, percent of patients [2, 5]: (1%)
TEAE Hypertension, All Grades [2, 5]: 14 (17%) n (%)
TEAE Hypertension, Grade 3-4, number of patients [2, 5]: 4 n
TEAE Hypertension, Grade 3-4, percent of patients [2, 5]: (5%)
TEAE Nausea, All Grades [2, 5]: 21 (25%) n (%)
TEAE Nausea, Grade 3-4, number of patients [2, 5]: 0 n
TEAE Periorbital edema, All Grades [2, 5]: 37 (45%) n (%)
TEAE Periorbital edema, Grade 3-4, number of patients [2, 5]: 3 n
TEAE Periorbital edema, Grade 3-4, percent of patients [2, 5]: (4%)
TEAE Pruritus, All Grades [2, 5]: 24 (29%) n (%)
TEAE Pruritus, Grade 3-4, number of patients [2, 5]: 2 n
TEAE Pruritus, Grade 3-4, percent of patients [2, 5]: (2%)
TEAE Rash maculo-papular, All Grades [2, 5]: 16 (19%) n (%)
TEAE Rash maculo-papular, Grade 3-4, number of patients [2, 5]: 1 n
TEAE Rash maculo-papular, Grade 3-4, percent of patients [2, 5]: (1%)
TEAE Rash, All Grades [2, 5]: 16 (19%) n (%)
TEAE Rash, Grade 3-4, number of patients [2, 5]: 0 n
TEAE CPK increased, Grade 3-4, percent of patients ([2]; 30 mg twice weekly, n=83, Part 1, listed as Vimseltinb): (10%)
Patients with TEAEs leading to treatment discontinuation ([2]; vimseltinib arm): 5%
